In ChEMBL document CHEMBL1201862, “PubChem BioAssay data set” (2004):
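In this assay, cells in 96-well plates receive the compound at five concentrations for 48 hours. Endpoints are linearly interpolated between the surrounding concentrations. Here, GI50 denotes the concentration required for 50% inhibition of growth.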 The source made the active and inactive calls. No stated cut-off is given here; in the data, active = GI50 up to about 1.1 µM and inactive = higher.

Legend:
Assay in all cases: inhibition of tumour cell growth, NCI panel, 48 h
786-0 = system: 786-0
A498 = system: A498
A549 = system: A549
ACHN = system: ACHN
CAKI-1 = system: CAKI-1
CCRF-CEM = system: CCRF-CEM
COLO 205 = system: COLO 205
DU-145 = system: DU-145
EKVX = system: EKVX
HCC 2998 = system: HCC 2998
HCT-116 = system: HCT-116
HCT-15 = system: HCT-15
HL-60 = system: HL-60
HOP-62 = system: HOP-62
HOP-92 = system: HOP-92
HT-29 = system: HT-29
Hs-578T = system: Hs-578T
IGROV-1 = system: IGROV-1
K562 = system: K562
KM12 = system: KM12
LOX IMVI = system: LOX IMVI
M14 = system: M14
MCF7 = system: MCF7
MDA-MB-231 = system: MDA-MB-231
MDA-MB-435 = system: MDA-MB-435
MDA-N = system: MDA-N
MOLT-4 = system: MOLT-4
Malme-3M = system: Malme-3M
NCI-H226 = system: NCI-H226
NCI-H23 = system: NCI-H23
NCI-H460 = system: NCI-H460
NCI/ADR-RES = system: NCI/ADR-RES
OVCAR-3 = system: OVCAR-3
OVCAR-4 = system: OVCAR-4
OVCAR-5 = system: OVCAR-5
OVCAR-8 = system: OVCAR-8
PC-3 = system: PC-3
RPMI-8226 = system: RPMI-8226
RXF 393 = system: RXF 393
SF-268 = system: SF-268
SF-295 = system: SF-295
SF-539 = system: SF-539
SK-MEL-28 = system: SK-MEL-28
SK-MEL-2 = system: SK-MEL-2
SK-MEL-5 = system: SK-MEL-5
SN12C = system: SN12C
SNB-19 = system: SNB-19
SNB-75 = system: SNB-75
SR = system: SR
SW-620 = system: SW-620
T47D = system: T47D
TK-10 = system: TK-10
UACC-257 = system: UACC-257
UACC-62 = system: UACC-62
UO-31 = system: UO-31
BT-549 = system: BT-549
SK-OV-3 = system: SK-OV-3
U-251 = system: U-251
NCI-H522 = system: NCI-H522

CC1C[C@]2(C)C(=O)Nc3ccccc3[C@@H]2Nc2ccccc21 (stereo partly specified)
GI50 (786-0): 22 µM (inactive)
GI50 (A498): 20.5 µM (inactive)
GI50 (A549): 25.1 µM (inactive)
GI50 (ACHN): 27.1 µM (inactive)
GI50 (CAKI-1): 20.3 µM (inactive)
GI50 (CCRF-CEM): 30.5 µM (inactive)
GI50 (COLO 205): 18.1 µM (inactive)
GI50 (DU-145): 27.7 µM (inactive)
GI50 (EKVX): 19.9 µM (inactive)
GI50 (HCC 2998): 33.7 µM (inactive)
GI50 (HCT-116): 16.1 µM (inactive)
GI50 (HCT-15): 34.7 µM
GI50 (HL-60): 36.4 µM (inactive)
GI50 (HOP-62): 23.7 µM (inactive)
GI50 (HOP-92): 1.95 µM (inactive)
GI50 (HT-29): 14.7 µM (inactive)
GI50 (Hs-578T): 20 µM (inactive)
GI50 (IGROV-1): 24.4 µM (inactive)
GI50 (K562): 32.9 µM (inactive)
GI50 (KM12): 17.9 µM (inactive)
GI50 (LOX IMVI): 16.3 µM (inactive)
GI50 (M14): 26.1 µM (inactive)
GI50 (MCF7): 21 µM (inactive)
GI50 (MDA-MB-231): 16.3 µM (inactive)
GI50 (MDA-MB-435): 24 µM (inactive)
GI50 (MDA-N): 28.8 µM (inactive)
GI50 (MOLT-4): 17.4 µM (inactive)
GI50 (Malme-3M): 23.3 µM (inactive)
GI50 (NCI-H226): 26.1 µM (inactive)
GI50 (NCI-H23): 19.5 µM (inactive)
GI50 (NCI-H460): 28.1 µM (inactive)
GI50 (NCI/ADR-RES): 19.8 µM (inactive)
GI50 (OVCAR-3): 17.8 µM (inactive)
GI50 (OVCAR-4): 44.3 µM (inactive)
GI50 (OVCAR-5): 35.6 µM (inactive)
GI50 (OVCAR-8): 14.8 µM (inactive)
GI50 (PC-3): 17.6 µM (inactive)
GI50 (RPMI-8226): 23.5 µM (inactive)
GI50 (RXF 393): 24.8 µM (inactive)
GI50 (SF-268): 23.7 µM (inactive)
GI50 (SF-295): 31.6 µM (inactive)
GI50 (SF-539): 23.4 µM (inactive)
GI50 (SK-MEL-28): 28.6 µM (inactive)
GI50 (SK-MEL-2): 20.1 µM (inactive)
GI50 (SK-MEL-5): 16.5 µM (inactive)
GI50 (SN12C): 19.5 µM (inactive)
GI50 (SNB-19): 21.8 µM (inactive)
GI50 (SNB-75): 46.3 µM (inactive)
GI50 (SR): 16.2 µM (inactive)
GI50 (SW-620): 34.6 µM (inactive)
GI50 (T47D): 42.5 µM (inactive)
GI50 (TK-10): 21.2 µM (inactive)
GI50 (UACC-257): 15.6 µM (inactive)
GI50 (UACC-62): 15.1 µM (inactive)
GI50 (UO-31): 50 µM (inactive)

O=C1N[C@H]2c3c(Cl)sc(Cl)c3[C@@H](O)[C@H]2O1
GI50 (786-0): > 100 µM (inactive)
GI50 (A498): > 100 µM (inactive)
GI50 (A549): > 100 µM (inactive)
GI50 (ACHN): > 100 µM (inactive)
GI50 (BT-549): > 100 µM (inactive)
GI50 (CAKI-1): > 100 µM (inactive)
GI50 (CCRF-CEM): > 100 µM (inactive)
GI50 (COLO 205): > 100 µM (inactive)
GI50 (DU-145): > 100 µM (inactive)
GI50 (EKVX): > 100 µM (inactive)
GI50 (HCC 2998): > 100 µM (inactive)
GI50 (HCT-116): > 100 µM (inactive)
GI50 (HCT-15): > 100 µM
GI50 (HL-60): > 100 µM (inactive)
GI50 (HOP-62): > 100 µM (inactive)
GI50 (HT-29): > 100 µM (inactive)
GI50 (IGROV-1): > 100 µM (inactive)
GI50 (K562): > 100 µM (inactive)
GI50 (KM12): > 100 µM (inactive)
GI50 (M14): > 100 µM (inactive)
GI50 (MCF7): > 100 µM (inactive)
GI50 (MDA-MB-231): > 100 µM (inactive)
GI50 (MDA-MB-435): > 100 µM (inactive)
GI50 (MDA-N): > 100 µM (inactive)
GI50 (MOLT-4): > 100 µM (inactive)
GI50 (Malme-3M): > 100 µM (inactive)
GI50 (NCI-H460): > 100 µM (inactive)
GI50 (NCI/ADR-RES): > 100 µM (inactive)
GI50 (OVCAR-3): > 100 µM (inactive)
GI50 (OVCAR-5): > 100 µM (inactive)
GI50 (OVCAR-8): > 100 µM (inactive)
GI50 (PC-3): > 100 µM (inactive)
GI50 (RPMI-8226): > 100 µM (inactive)
GI50 (RXF 393): > 100 µM (inactive)
GI50 (SF-268): > 100 µM (inactive)
GI50 (SF-539): > 100 µM (inactive)
GI50 (SK-MEL-28): > 100 µM (inactive)
GI50 (SK-MEL-2): > 100 µM (inactive)
GI50 (SK-MEL-5): > 100 µM (inactive)
GI50 (SK-OV-3): > 100 µM (inactive)
GI50 (SN12C): > 100 µM (inactive)
GI50 (SNB-19): > 100 µM (inactive)
GI50 (SNB-75): > 100 µM (inactive)
GI50 (SR): > 100 µM (inactive)
GI50 (SW-620): > 100 µM (inactive)
GI50 (T47D): > 100 µM (inactive)
GI50 (TK-10): > 100 µM (inactive)
GI50 (U-251): > 100 µM (inactive)
GI50 (UACC-257): > 100 µM (inactive)
GI50 (UACC-62): > 100 µM (inactive)
GI50 (UO-31): > 100 µM (inactive)

COc1ccc2[nH]c3c(c2c1)CCn1c-3nc2ccccc2c1=O
GI50 (786-0): > 25 µM (inactive)
GI50 (A549): > 25 µM (inactive)
GI50 (ACHN): > 25 µM (inactive)
GI50 (CCRF-CEM): > 25 µM (inactive)
GI50 (COLO 205): > 25 µM (inactive)
GI50 (EKVX): > 25 µM (inactive)
GI50 (HCC 2998): > 25 µM (inactive)
GI50 (HCT-116): > 25 µM (inactive)
GI50 (HCT-15): > 25 µM
GI50 (HL-60): > 25 µM (inactive)
GI50 (HOP-62): > 25 µM (inactive)
GI50 (Hs-578T): > 25 µM (inactive)
GI50 (IGROV-1): > 25 µM (inactive)
GI50 (K562): > 25 µM (inactive)
GI50 (KM12): > 25 µM (inactive)
GI50 (M14): > 25 µM (inactive)
GI50 (MCF7): > 25 µM (inactive)
GI50 (MDA-MB-231): > 25 µM (inactive)
GI50 (MDA-MB-435): > 25 µM (inactive)
GI50 (MDA-N): > 25 µM (inactive)
GI50 (MOLT-4): > 25 µM (inactive)
GI50 (NCI-H460): > 25 µM (inactive)
GI50 (NCI-H522): > 25 µM (inactive)
GI50 (NCI/ADR-RES): > 25 µM (inactive)
GI50 (OVCAR-4): > 25 µM (inactive)
GI50 (OVCAR-5): > 25 µM (inactive)
GI50 (OVCAR-8): > 25 µM (inactive)
GI50 (PC-3): > 25 µM (inactive)
GI50 (RPMI-8226): > 25 µM (inactive)
GI50 (SF-268): > 25 µM (inactive)
GI50 (SF-295): > 25 µM (inactive)
GI50 (SF-539): > 25 µM (inactive)
GI50 (SK-MEL-28): > 25 µM (inactive)
GI50 (SK-MEL-5): > 25 µM (inactive)
GI50 (SK-OV-3): > 25 µM (inactive)
GI50 (SN12C): > 25 µM (inactive)
GI50 (SNB-19): > 25 µM (inactive)
GI50 (SNB-75): > 25 µM (inactive)
GI50 (SR): > 25 µM (inactive)
GI50 (SW-620): > 25 µM (inactive)
GI50 (T47D): > 25 µM (inactive)
GI50 (TK-10): > 25 µM (inactive)
GI50 (U-251): > 25 µM (inactive)
GI50 (UACC-257): > 25 µM (inactive)
GI50 (UO-31): > 25 µM (inactive)

Cc1c(CCN=P(c2ccccc2)(c2ccccc2)c2ccccc2)c(=O)n2c([nH]c3ccccc32)c1C#N
GI50 (786-0): > 10 µM (inactive)
GI50 (A549): > 10 µM (inactive)
GI50 (CAKI-1): > 10 µM (inactive)
GI50 (CCRF-CEM): 6.93 µM (inactive)
GI50 (COLO 205): > 10 µM (inactive)
GI50 (DU-145): > 10 µM (inactive)
GI50 (EKVX): > 10 µM (inactive)
GI50 (HCC 2998): > 10 µM (inactive)
GI50 (HCT-15): > 10 µM
GI50 (HL-60): 7.21 µM (inactive)
GI50 (HOP-62): > 10 µM (inactive)
GI50 (HT-29): > 10 µM (inactive)
GI50 (IGROV-1): > 10 µM (inactive)
GI50 (K562): 8.36 µM (inactive)
GI50 (KM12): > 10 µM (inactive)
GI50 (LOX IMVI): > 10 µM (inactive)
GI50 (M14): > 10 µM (inactive)
GI50 (MCF7): > 10 µM (inactive)
GI50 (MDA-MB-231): > 10 µM (inactive)
GI50 (MDA-N): > 10 µM (inactive)
GI50 (MOLT-4): 6.19 µM (inactive)
GI50 (Malme-3M): > 10 µM (inactive)
GI50 (NCI-H23): > 10 µM (inactive)
GI50 (OVCAR-8): > 10 µM (inactive)
GI50 (PC-3): > 10 µM (inactive)
GI50 (RPMI-8226): > 10 µM (inactive)
GI50 (RXF 393): > 10 µM (inactive)
GI50 (SF-268): > 10 µM (inactive)
GI50 (SF-295): > 10 µM (inactive)
GI50 (SK-MEL-28): > 10 µM (inactive)
GI50 (SK-MEL-5): > 10 µM (inactive)
GI50 (SK-OV-3): > 10 µM (inactive)
GI50 (SN12C): > 10 µM (inactive)
GI50 (SNB-75): > 10 µM (inactive)
GI50 (SR): 8.75 µM (inactive)
GI50 (SW-620): > 10 µM (inactive)
GI50 (T47D): > 10 µM (inactive)
GI50 (TK-10): > 10 µM (inactive)
GI50 (UACC-257): > 10 µM (inactive)
GI50 (UACC-62): > 10 µM (inactive)
